Values joined by “and” are separate entries in the source; they are usually repeats but may differ in a detail not shown here. Identical values can stand only once. Like-named read-outs stand apart in the source and are kept apart here.
Experiments:
wtCaM = wtCaM (Homo sapiens, UniProt P0DP23); assay: Binding capacity of metal ions to wtCaM monitored by MspA nanopore trapping
M2 MspA = system: M2 MspA; set-up: species or system Mycobacterium smegmatis; conditions: for mean dwell time (τoff), mean ± std / mean interevent duration time (τon), mean ± std: N=3
[1] = […] KCl/1.0M CaCl2, +100 mV, listed as LYSOZYME
[2] = […] KCl/[…] KCl, +100 mV, listed as LYSOZYME
[3] = […] KCl/[…] KCl, +100 mV, listed as APO-MYOGLOBIN

[Ba+2] [Ba^2+]
Proportion of Apo-wtCaM events (wtCaM): 95.6 ± 2.9%
Proportion of Holo-wtCaM events (binding capacity) (wtCaM): 4.4% and 4.4 ± 2.9%
binding capacity to wtCaM, in words (wtCaM): poor binding capacity
ΔI/I0 of Apo-wtCaM events (wtCaM): 51.6 ± 0.6%
ΔI/I0 of Holo-wtCaM events (wtCaM): 86.9 ± 1.0%

[Ca+2] [Ca^2+]
ion concentration that fully activates wtCaM (wtCaM; 0.3 μM wtCaM): 0.6 mM
Proportion of Apo-wtCaM events (wtCaM; 2 mM ion, 0.6 μM wtCaM): 21.2 ± 3.1%
Proportion of Holo-wtCaM events (binding capacity) (wtCaM; 2 mM ion, 0.6 μM wtCaM): 54% and 54.1 ± 4.8%
Proportion of Transient States events (wtCaM; 2 mM ion, 0.6 μM wtCaM): 24.8 ± 2.7%
ΔI/I0 of Apo-wtCaM events (wtCaM; 2 mM ion, 0.6 μM wtCaM): 56.8±1.1%
ΔI/I0 of Holo-wtCaM events (wtCaM; 2 mM ion, 0.6 μM wtCaM): 90.4±0.2%
ΔI/I0 of Transient States events (wtCaM; 2 mM ion, 0.6 μM wtCaM): 75.0±2.1%
binding capacity to wtCaM, in words (wtCaM; nanopore trapping): strong binding affinity

[Mg+2] [Mg^2+]
Proportion of Apo-wtCaM events (wtCaM; 2 mM ion, 0.6 μM wtCaM): 96.0 ± 1.7%
Proportion of Holo-wtCaM events (binding capacity) (wtCaM; 2 mM ion, 0.6 μM wtCaM): 4.0% and 4.0 ± 1.7%
ΔI/I0 of Apo-wtCaM events (wtCaM; 2 mM ion, 0.6 μM wtCaM): 52.6 ± 0.4%
ΔI/I0 of Holo-wtCaM events (wtCaM; 2 mM ion, 0.6 μM wtCaM): 88.8 ± 1.1%
binding capacity to wtCaM, in words (wtCaM; nanopore trapping): poor binding capacity

[Pb+2] [Pb^2+]
Proportion of Holo-wtCaM events (binding capacity) (wtCaM): 62.0±3.1%
Proportion of Transient States events (wtCaM): 38.0 ± 3.1%
binding capacity to wtCaM, in words (wtCaM): even stronger than that of Ca^2+
ΔI/I0 of Holo-wtCaM events (wtCaM): 90.6 ± 0.7%
ΔI/I0 of Transient States events (wtCaM): 77.91 ± 0.13%

[Sr+2] [Sr^2+]
Proportion of Apo-wtCaM events (wtCaM; 2 mM ion, 0.6 μM wtCaM): 73.1 ± 1.4%
Proportion of Holo-wtCaM events (binding capacity) (wtCaM; 2 mM ion, 0.6 μM wtCaM): 14.0±2.4%
Proportion of Transient States events (wtCaM; 2 mM ion, 0.6 μM wtCaM): 12.6 ± 0.4%
ΔI/I0 of Apo-wtCaM events (wtCaM; 2 mM ion, 0.6 μM wtCaM): 54.0 ± 0.5%
ΔI/I0 of Holo-wtCaM events (wtCaM; 2 mM ion, 0.6 μM wtCaM): 90.22 ± 0.16%
ΔI/I0 of Transient States events (wtCaM; 2 mM ion, 0.6 μM wtCaM): 75.7 ± 1.5%
binding capacity to wtCaM, in words (wtCaM; nanopore trapping): slightly better binding capacity to wtCaM than that of Mg^2+ or Ba^2+

[Tb+3] [Tb^3+]
ion concentration that fully activates apo-wtCaM (wtCaM; 0.3 μM apo-wtCaM): 5 µM
concentration regime in which Tb-wtCaM events were observed (wtCaM; 0.3 μM wtCaM): 0.05 to 120 µM
concentration regime in which the pre-aggregated state was observed (wtCaM; 0.3 μM wtCaM): 15 to 200 µM
ion concentration with complete disappearance of events (aggregation of wtCaM) (wtCaM; 0.3 μM wtCaM): 500 µM
binding capacity to wtCaM, in words (wtCaM; nanopore trapping): stronger than that of Ca^2+

lysozyme: lysozyme from chicken egg white, representative basic protein
1/τon (M2 MspA; +60 mV, […] KCl/1.0M CaCl2): (1.0 ± 0.2) × 10^−2 MS^−1
τoff (M2 MspA; +60 mV, […] KCl/1.0M CaCl2): 35.5 ± 0.9 MS
1/τon (M2 MspA; +80 mV, […] KCl/1.0M CaCl2): (1.4 ± 0.4) × 10^−2 MS^−1
τoff (M2 MspA; +80 mV, […] KCl/1.0M CaCl2): 47.8 ± 6.7 MS
1/τon (M2 MspA; +100 mV, […] KCl/1.0M CaCl2): (1.8 ± 0.2) × 10^−2 MS^−1
τoff (M2 MspA; +100 mV, […] KCl/1.0M CaCl2): 47.3 ± 3.5 MS
1/τon (M2 MspA; +120 mV, […] KCl/1.0M CaCl2): (1.8 ± 0.3) × 10^−2 MS^−1
τoff (M2 MspA; +120 mV, […] KCl/1.0M CaCl2): 38.8 ± 8.9 MS
mean dwell time (τoff), mean ± std (M2 MspA; […] KCl/1.0M CaCl2, +100 mV): 47.3±3.5 MS
mean interevent duration time (τon), mean ± std (M2 MspA; […] KCl/1.0M CaCl2, +100 mV): 38.0±11.0 MS
mean dwell time (τoff), mean ± std (M2 MspA; [1]): 47.3 ± 3.5 MS
mean interevent duration time (τon), mean ± std (M2 MspA; [1]): 38.0 ± 11.0 MS
mean dwell time (τoff), mean ± std (M2 MspA; […] KCl/[…] KCl, +100 mV): 5.4±0.2 MS
mean interevent duration time (τon), mean ± std (M2 MspA; […] KCl/[…] KCl, +100 mV): 460.7±51.2 MS
mean dwell time (τoff), mean ± std (M2 MspA; [2]): 5.4 ± 0.2 MS
mean interevent duration time (τon), mean ± std (M2 MspA; [2]): 460.7 ± 51.2 MS
1/τon (M2 MspA; concentration 0.21 (MM), +100 mV): (6.4 ± 2.6) × 10^−3 MS^−1
1/τon (M2 MspA; concentration 0.42 (MM), +100 mV): (2.8 ± 0.8) × 10^−2 MS^−1
1/τon (M2 MspA; concentration 0.63 (MM), +100 mV): (4.2 ± 1.2) × 10^−2 MS^−1
1/τon (M2 MspA; concentration 0.83 (MM), +100 mV): (5.5 ± 0.7) × 10^−2 MS^−1

B1: apo-myoglobin: heme-free myoglobin from equine skeletal muscle (protein, UniProt P68082 2-154, looked up)
Myoglobin: GLSDGEWQQVLNVWGKVEADIAGHGQEVLIRLFTGHPETLEKFDKFKHLKTEAEMKASEDLKKHGTVVLTALGGILKKKGHHEAELKPLAQSHATKHKIPIKYLEFISDAIIHVLHSKHPGDFGADAQGAMTKALELFRNDIAAKYKELGFQG
modifications: heme-free apo form
notes: heme-free myoglobin from equine skeletal muscle
1/τon (M2 MspA; +60 mV, […] KCl/1.0M CaCl2): (1.0 ± 0.3) × 10^−3 MS^−1
τoff (M2 MspA; +60 mV, […] KCl/1.0M CaCl2): 99.3 ± 20.2 MS
1/τon (M2 MspA; +80 mV, […] KCl/1.0M CaCl2): (2.0 ± 0.5) × 10^−3 MS^−1
τoff (M2 MspA; +80 mV, […] KCl/1.0M CaCl2): 317.5 ± 18.3 MS
1/τon (M2 MspA; +100 mV, […] KCl/1.0M CaCl2): (2.8 ± 0.3) × 10^−3 MS^−1
τoff (M2 MspA; +100 mV, […] KCl/1.0M CaCl2): 531.0 ± 27.5 MS
1/τon (M2 MspA; +120 mV, […] KCl/1.0M CaCl2): (4.5 ± 0.6) × 10^−3 MS^−1
τoff (M2 MspA; +120 mV, […] KCl/1.0M CaCl2): 522.0 ± 15.0 MS
mean dwell time (τoff), mean ± std (M2 MspA; […] KCl/1.0M CaCl2, +100 mV): 531.0±27.5 MS
mean interevent duration time (τon), mean ± std (M2 MspA; […] KCl/1.0M CaCl2, +100 mV): 365.1 ± 27.9 MS
mean dwell time (τoff), mean ± std (M2 MspA; […] KCl/1.0M CaCl2, +100 mV, listed as APO-MYOGLOBIN): 531.0 ± 27.5 MS
mean dwell time (τoff), mean ± std (M2 MspA; […] KCl/[…] KCl, +100 mV): 7.3±1.3 MS
mean dwell time (τoff), mean ± std (M2 MspA; [3]): 7.3 ± 1.3 MS
mean interevent duration time (τon), mean ± std (M2 MspA; [3]): 3640.4 ± 633.6 MS
1/τon (M2 MspA; concentration 0.04 (MM), +100 mV): (4.4 ± 0.5) × 10^−4 MS^−1
1/τon (M2 MspA; concentration 0.07 (MM), +100 mV): (9.9 ± 0.9) × 10^−3 MS^−1
1/τon (M2 MspA; concentration 0.11 (MM), +100 mV): (2.1 ± 0.2) × 10^−3 MS^−1
1/τon (M2 MspA; concentration 0.14 (MM), +100 mV): (2.8 ± 0.2) × 10^−3 MS^−1
